What all share (assay type): cell-based, human
The subject of assay [1] is H9 hESCs. Description: Differentiation of cervical OLIG2+ progenitors to post-mitotic motor neurons (immunocytochemistry, flow cytometry). As to conditions: 20 total days of differentiation, SHH, or SAG 2 μM instead of SHH. An excerpt:
Having optimized the efficiency of OLIG2 induction at diverse spinal cord regions, next region-specific post-mitotic motor neurons were generated. Cervical OLIG2^+ motor neuron progenitors were en bloc passaged and gradually differentiated to ISL1^+ motor neurons over a 14-day period (FIGS. 7A-7B). […] The extensive co-labeling of ISL1^+ cells with SMI32-reactive non-phosphorylated neurofilament heavy chain is indicative of motor neuron identity. Widespread HB9/βIII-tubulin motor neuron expression was also observed throughout the cultures (FIG. 7C). Since spinal motor neurons in vivo are observed to be both ISL1^+, ISL1^+/HB9^+, and HB9^+ but are all SMI32 reactive, flow cytometry of the SMI32^+ cells is proposed to best represent the total percentage of motor neurons in each culture. Moreover, the use of SAG (2 μM), a small molecule Smoothened agonist45, instead of SHH yielded similar efficiencies (72±4% SMI32^+, 63±13% ISL1^+, and 65±15% HB9^+) (FIG. 7C). High efficiencies were also observed for thoracic cultures, whereas lumbar cultures saw a ˜10% decrease in efficiency (FIG. 7C). For all regions, ISL1^+ motor neurons predominantly co-labeled with FOXP1 (70-80% in cervical motor neurons and 40-60% in thoracic and lumbar motor neurons) versus LHX3 markers (20-30% in cervical and thoracic cultures and 15-20% in lumbar cultures) (FIG. 7C). […] These trends agree with the observed distribution of columnar motor neuron phenotype in the cervical, thoracic and lumbar spinal cord in vivo, and it is consistent with our prior observations of motor neuron populations derived using the deterministic HOX patterning protocol.
(§1) Thoracic identity was reached after an additional 24 h. Then, to reach the lumbosacral level, cells were given 30 ng/ml GDF11 and 1 μM DM for an additional 48 h. For neuroectoderm induction and generation of OLIG2^+ progenitors, FGF8b was removed at the designated time points and the concentration of CHIR was increased for 6 h as described in the text, followed by a transition to media containing RA, PM, and SHH for a period of 48 h. […]

The test system of assay [2] is H9 hESCs. Put plainly: NKX6.1 induction in neurally differentiating H9 hESCs after 24 h treatment (flow cytometry, RT-PCR, day 3). The method, then:
(§2) NKX6.1 is the earliest expressed marker in the motor neuron development cascade in vivo, so we examined its expression in response to Wnt/β-catenin, RA, and SHH signaling during hPSC motor neuron differentiation. H9 hESCs were differentiated in E6 medium for 2 days to initiate neural fate acquisition34 and then treated with combinations of RA, purmorphamine (PM, a small molecule agonist of SHH signaling), and CHIR for 24 h (FIG. 4A). […] Using the H9 ishcat2 line, we observed that CHIR-mediated induction of NKX6.1 was β-catenin-dependent, as the optimal 3 days of shRNA-mediated CTNNB1 knockdown upstream of CHIR treatment was required to maximally reduce NKX6.1 induction to 44±1% (FIG. 4E). The correlation between NKX6.1 knockdown and days of doxycycline treatment was presumably due to the time delay for shRNA synthesis and subsequent gene knockdown in Tet-on systems. […] Exogenously added WNT3A (200 ng/mL) could also induce NKX6.1 expression (60±14%) (FIG. 4G), providing further evidence for the involvement of Wnt/β-catenin signaling in this process. In contrast, simultaneous treatment with CHIR and BMP4 (200 ng/mL), a dorsal patterning factor, reduced the expression of NKX6.1 from 91±1% to 68±2% (FIG. 4H).
(§3) hESCs were dissociated with accutase (Thermo Fisher Scientific) and reseeded at 1×10^5 cells/cm2 in E8 medium containing 10 μM ROCK inhibitor (Y27632; R&D Systems) on 6-well polystyrene tissue culture plates coated with 100 μg/mL poly-L-ornithine (PLO; Sigma) and 8 μg/well VTN-NC. The timelines and relevant growth factors/small molecules for all differentiation procedures are described in detail in the Results section and its accompanying figures. Cells were differentiated for various amounts of time in E6 medium containing the same insulin concentration as E8 medium as described above with varying combinations of soluble factors (product information and concentration ranges are found in Table 2). For neuromesodermal induction and HOX propagation, cells were sequentially cultured with FGF8b, CHIR99021 (CHIR), GDF11, and dorsomorphin (DM) as previously described. Briefly, to initiate the neuromesodermal state, cells were changed to E6 medium followed by addition of FGF8b (200 ng/ml) 24 h later. To generate cervical neuromesodermal progenitors, cells were washed with PBS, treated with accutase, and re-seeded in E6 medium containing 200 ng/ml FGF8b, 3 μM CHIR, and 10 μM Y27632 on VTN-NC-coated plates at a density of 1.5×10^5 cells/cm^2 for 48 h. To generate thoracic neuromesodermal progenitors, cells were passaged again after 72 h of CHIR treatment and re-seeded at different densities as described in the text.
Thoracic identity was reached after an additional 24 h. Then, to reach the lumbosacral level, cells were given 30 ng/ml GDF11 and 1 μM DM for an additional 48 h. For neuroectoderm induction and generation of OLIG2^+ progenitors, FGF8b was removed at the designated time points and the concentration of CHIR was increased for 6 h as described in the text, followed by a transition to media containing RA, PM, and SHH for a period of 48 h. For differentiation of the OLIG2^+ progenitors to motor neurons, cells were subcultured by en bloc passage using a cell scraper, reseeded at a 1:200 ratio in Matrigel-coated 8-well chamber slides, and differentiated for 14 days in E6 medium containing 1 μM RA, 100 nM PM, and 100 ng/mL SHH, with media exchange every 3 days (10 μM Y27632 was included during the en bloc passaging step and removed after the first media exchange). For differentiation of lumbar cultures, 1 μM DM was included in all steps. For the myoblast co-culture experiments, OLIG2^+ cultures were en bloc passaged, frozen in E6 medium containing 10% DMSO, shipped to a different location, and thawed 1:10 in 6-well plates under the same conditions as described in FIG. 5. To facilitate neuronal maturation prior to myoblast co-culture, 5 μM DAPT (Tocris) was added from days 8-14 post-thaw. […]

For assay [3], the system named is H9 hESCs. Description: Induction of NKX6.1+/PAX6+/OLIG2+ motor neuron progenitors from cervical neuromesoderm (flow cytometry, immunocytochemistry). As to conditions: RA 1 μM for 2 days without PM or SHH, day 6. The method, then: To begin, we sequentially differentiated H9 hESCs in E6 media for 1 day, and FGF8b (200 ng/mL) for 1 day, and FGF8b and CHIR (3 μM) for 2 days to generate cervical neuromesoderm (FIGS. 5A-5B). Then, we screened the effects of CHIR, PM, and SHH treatment on NKX6.1^+/PAX6^+/OLIG2^+ motor neuron progenitor induction while transitioning to media containing 1 μM RA (FIGS. 5A-5D). Prior to the addition of RA, NKX6.1 was expressed in the cervical neuromesodermal state at day 4 (80±18% NKX6.1^+; data not shown), likely due to the CHIR-induced Wnt/β-catenin signaling (FIGS. 4A-4H). Transitioning the neuromesodermal progenitors to RA-containing media for 2 days induced HOXB4^+/HOXC6^+/HOXC9^−/HOXD10^−/PAX6^+ cervical neuroectoderm in all conditions (FIGS. 5B-5C), as expected. However, without co-activation of SHH signaling by PM or SHH, NKX6.1 expression was quickly lost by day 6 (97±1% PAX6^+, 17±3% NKX6.1^+) (FIG. 5C). […] To bolster this claim, we also analyzed the abundance of full-length GLI3 versus its truncated repressor form by western blot. […] Thus, Wnt/β-catenin signaling is necessary to induce ventral identity, but its continuous activation during OLIG2 induction by SHH signaling is detrimental to motor neuron differentiation, possibly due to activation of the GLI3 repressor.
Next, we tested conditions where CHIR was removed after transitioning to media containing RA (1 μM), PM (2 μM), and SHH (2 μg/mL) (FIGS. 5A-5C).
Since NKX6.1 is a pre-requisite to OLIG2 expression, we hypothesized that the Wnt/β-catenin signaling-dependent NKX6.1 expression levels may still be too low for efficient OLIG2^+ motor neuron progenitor induction. Therefore, the concentration of CHIR was boosted to 6 or 9 μM for 6 h immediately prior to transitioning to E6 medium containing RA, PM, and SHH without CHIR (FIG. 5A). The 9 μM CHIR boost followed by a transition to media containing 1 μM RA, 2 μM PM, and 2 μg/mL SHH yielded optimal motor neuron progenitor cultures with highly uniform NKX6.1, OLIG2, and PAX6 expression (96±1%, 85±9%, and 97±2%, respectively) (FIGS. 5C-5D).
as §3, §1

Assay [4] deals with H9 ishcat2 hESC line. Put plainly: Doxycycline-inducible shRNA knockdown of β-catenin (CTNNB1) during motor neuron differentiation. As to conditions: doxycycline 2 μg/mL. As for the experimental part: In the ventral neural tube, SHH signaling generates OLIG2^+ motor neuron progenitors that subsequently mature into post-mitotic ISL1^+ and/or HB9^+ motor neurons. To probe the role of Wnt/β-catenin signaling during this process in vitro, we utilized the H9 ishcat2 hESC line, which harbors a doxycycline-inducible shRNA against CTNNB1.
Similarly, we induced β-catenin knockdown while differentiating the hESCs into motor neurons via E6 neural induction with RA (1 μM), purmorphamine (PM, a small molecule agonist of sonic hedgehog signaling; 100 nM), and neurotrophic factor treatment, as previously described (FIG. 3A).
as §2
hESCs were maintained on Matrigel (BD Biosciences) in E8 medium but with 10-fold lower insulin concentration (2 mg/L). Cell lines used in this study were H9 hESCs (passage 25-45) and H9 ishcat2 hESCs (passage 35-45). […]

This note sets out measurements from patent publication US12084680B2, “Methods for efficient derivation of human motor neurons from diverse spinal regions” (Wisconsin Alumni Research Foundation, priority 2016, dated 2024).

As for `CNC1CCC(N(Cc2cccc(-c3ccncc3)c2)C(=O)c2sc3ccccc3c2Cl)CC1` (centres unmarked) [SAG], in assay [1], the “HB9+ cells” value was 65±15%, the “ISL1+ cells” value is 63±13% and the “SMI32+ cells” value is reported as 72±4%. `CC1=C2C[C@H]3[C@@H](CC=C4C[C@@H](O)CC[C@@]43C)[C@@H]2CC[C@]12O[C@@H]1C[C@H](C)CN[C@H]1[C@H]2C` [Cyclopamine]: the “NKX6.1 expression (flow cytometry)” value in assay [2] (CHIR 6 μM plus Cyclopamine 5 μM, 24 h) is on record as “did not diminish NKX6.1 expression”.

In the case of `c1ccc2c(Oc3nc(Nc4ccc(N5CCOCC5)cc4)c4ncn(C5CCCCC5)c4n3)cccc2c1` [PM, Purmorphamine], the “NKX6.1 induction within 24 h” value in assay [2] (combined RA 1 μM and PM 1 μM, no CHIR) is given as “did not induce NKX6.1”.

Turning to `CC1=C(/C=C/C(C)=C/C=C/C(C)=C/C(=O)O)C(C)(C)CCC1` [RA, Retinoic acid], in assay [3], the “NKX6.1+ cells” value is given as 17±3% and the “PAX6+ cells” value worked out at 97±1%.

As to `C[C@H]1c2cccc(O)c2C(=O)C2=C(O)[C@]3(O)C(=O)C(C(N)=O)=C(O)[C@@H](N(C)C)[C@@H]3[C@@H](O)[C@@H]21` [Doxycycline], in assay [4] (day 3), the “reduction of CTNNB1 expression (qPCR relative to RPS18)” value is listed as 87%. In addition, the “NKX6.1 expression (flow cytometry)” value in assay [4] (β-catenin knockdown, day 16) is 2±1%.

B1: WNT3A: soluble WNT3A, Wnt polypeptide ligand activating Wnt/β-catenin signaling (protein, UniProt P56704 19-352, looked up)
Protein Wnt-3a: SYPIWWSLAVGPQYSSLGSQPILCASIPGLVPKQLRFCRNYVEIMPSVAEGIKIGIQECQHQFRGRRWNCTTVHDSLAIFGPVLDKATRESAFVHAIASAGVAFAVTRSCAEGTAAICGCSSRHQGSPGKGWKWGGCSEDIEFGGMVSREFADARENRPDARSAMNRHNNEAGRQAIASHMHLKCKCHGLSGSCEVKTCWWSQPDFRAIGDFLKDKYDSASEMVVEKHRESRGWVETLRPRYTYFKVPTERDLVYYEASPNFCEPNPETGSFGTRDRTCNVSSHGIDGCDLLCCGRGHNARAERRREKCRCVFHWCCYVSCQECTRVYDVHTCK
As for B1, the “NKX6.1 expression (flow cytometry)” value in assay [2] (WNT3A 200 ng/mL, day 3) amounted to 60±14%.

B2: BMP4: a dorsal patterning factor (protein, UniProt P12644 293-408, looked up)
Bone morphogenetic protein 4: SPKHHSQRARKKNKNCRRHSLYVDFSDVGWNDWIVAPPGYQAFYCHGDCPFPLADHLNSTNHAIVQTLVNSVNSSIPKACCVPTELSAISMLYLDEYDKVVLKNYQEMVVEGCGCR
On to B2, for which the “NKX6.1 expression (flow cytometry)” value in assay [2] (simultaneous CHIR 4 μM and BMP4 200 ng/mL, day 3) is 68±2%.
